According to the SangsterLogP compilation:

Assay: method code SF-AS, from DOI: 10.1016/0045-6535(95)00342-8

Compound | logP
CCCCOC(=O)CSc1ccccc1 | 3.26
COC(=O)CC(C)Sc1ccccc1 (stereo not drawn) | 2.61
CCOC(=O)CCSc1ccccc1 | 2.72
CC(C)OC(=O)CC(CSc1ccccc1)C(=O)OC(C)C (stereo not drawn) | 3.95
CC(C)OC(=O)CSc1ccccc1 | 2.53
CCOC(=O)CSc1ccccc1 | 2.12
COCCOC(=O)CSc1ccccc1 | 1.02
CC(C)COC(=O)CSc1ccccc1 | 3.02

Second part, the compound after the results:

logP | Compound
2.98 | CCOC(=O)CC(CSc1ccccc1)C(=O)OCC (stereo not drawn)
2.63 | COC(=O)C(C)CSc1ccccc1 (stereo not drawn)
2.04 | COC(=O)CCSc1ccccc1
1.73 | CCOCCOC(=O)CSc1ccccc1
2.6 | CCOC(=O)CC(Sc1ccccc1)C(=O)OCC (stereo not drawn)
2.69 | CCCOC(=O)CSc1ccccc1
3.53 | CC(C)OC(=O)CC(Sc1ccccc1)C(=O)OC(C)C (stereo not drawn)
1.42 | COC(=O)CC(Sc1ccccc1)C(=O)OC (stereo not drawn)
1.5 | COC(=O)CSc1ccccc1
1.96 | COC(=O)CC(CSc1ccccc1)C(=O)OC (stereo not drawn)
